Experiment [1] has as its system DNA1-G (DNA, mismatch bulge abasic, abasic site (dSpacer, tetrahydrofuran residue) at X, opposite G, flanked by T; position in Figure 1B) ATGGTGTNTGCAGCG/CGCTGCAGACACCAT
In words: UV melting at 260 nm. As to conditions: 0.1 M phosphate, 1 mM EDTA, pH 8.3 or 7.0 (unclear); 5 µM SG, 5 µM DNA.

In experiment [2] the test system is DNA2-A (DNA, mismatch bulge abasic, abasic site (dSpacer, tetrahydrofuran residue) at X, opposite A, flanked by A; position in Figure 1B) ATGGTGANAGCAGCG/CGCTGCTATCACCAT
The experiment can be described thus: UV melting at 260 nm. As to conditions: 0.1 M phosphate, 1 mM EDTA, pH 8.3 or 7.0 (unclear); 5 µM SG, 5 µM DNA.

The test system of experiment [3] is DNA1-C (DNA, mismatch bulge abasic, abasic site (dSpacer, tetrahydrofuran residue) at X, opposite C, flanked by T; position in Figure 1B) ATGGTGTNTGCAGCG/CGCTGCACACACCAT
The experiment can be described thus: fluorescence titration (586 nm), Scatchard. The following applies: 0.1 M phosphate, 1 mM EDTA; pH 8.3 presumed; 1 µM SG; strongest site only.

Experiment [4] has as its system DNA4-G (DNA, mismatch bulge abasic, abasic site (dSpacer, tetrahydrofuran residue) at X, opposite G, flanked by C; position in Figure 1B) ATGGTGCNCGCAGCG/CGCTGCGGGCACCAT
In words: UV melting at 260 nm. As to conditions: 0.1 M phosphate, 1 mM EDTA, pH 8.3 or 7.0 (unclear); 5 µM SG, 5 µM DNA.

Experiment [5] has as its system DNA3-T (DNA, mismatch bulge abasic, abasic site (dSpacer, tetrahydrofuran residue) at X, opposite T, flanked by G; position in Figure 1B) ATGGTGGNGGCAGCG/CGCTGCCTCCACCAT
The experiment can be described thus: UV melting at 260 nm. As to conditions: 0.1 M phosphate, 1 mM EDTA, pH 8.3 or 7.0 (unclear); 5 µM SG, 5 µM DNA.

The subject of experiment [6] is DNA1-T (DNA, mismatch bulge abasic, abasic site (dSpacer, tetrahydrofuran residue) at X, opposite T, flanked by T; position in Figure 1B) ATGGTGTNTGCAGCG/CGCTGCATACACCAT
The experiment can be described thus: UV melting at 260 nm. The following applies: 0.1 M phosphate, 1 mM EDTA, pH 8.3 or 7.0 (unclear); 5 µM SG, 5 µM DNA.

Experiment [7] has as its system DNA3-G (DNA, mismatch bulge abasic, abasic site (dSpacer, tetrahydrofuran residue) at X, opposite G, flanked by G; position in Figure 1B) ATGGTGGNGGCAGCG/CGCTGCCGCCACCAT
In words: UV melting at 260 nm. As to conditions: 0.1 M phosphate, 1 mM EDTA, pH 8.3 or 7.0 (unclear); 5 µM SG, 5 µM DNA.

Experiment [8] relates to DNA4-C (DNA, mismatch bulge abasic, abasic site (dSpacer, tetrahydrofuran residue) at X, opposite C, flanked by C; position in Figure 1B) ATGGTGCNCGCAGCG/CGCTGCGCGCACCAT
The experiment can be described thus: UV melting at 260 nm. The following applies: 0.1 M phosphate, 1 mM EDTA, pH 8.3 or 7.0 (unclear); 5 µM SG, 5 µM DNA.

The test system of experiment [9] is DNA1-A (DNA, mismatch bulge abasic, abasic site (dSpacer, tetrahydrofuran residue) at X, opposite A, flanked by T; position in Figure 1B) ATGGTGTNTGCAGCG/CGCTGCAAACACCAT
The experiment can be described thus: UV melting at 260 nm. As to conditions: 0.1 M phosphate, 1 mM EDTA, pH 8.3 or 7.0 (unclear); 5 µM SG, 5 µM DNA.

Experiment [10] concerns DNA2-C (DNA, mismatch bulge abasic, abasic site (dSpacer, tetrahydrofuran residue) at X, opposite C, flanked by A; position in Figure 1B) ATGGTGANAGCAGCG/CGCTGCTCTCACCAT
The experiment can be described thus: UV melting at 260 nm. As to conditions: 0.1 M phosphate, 1 mM EDTA, pH 8.3 or 7.0 (unclear); 5 µM SG, 5 µM DNA.

Experiment [11] has as its system mismatched DNA (DNA1, X = T, Y = C) (DNA, mismatch bulge abasic) ATGGTGTTTGCAGCG/CGCTGCACACACCAT
In words: fluorescence enhancement at 586 nm. As to conditions: 0.1 M phosphate, pH 8.3 presumed; 5 µM SG; up to 5 µM DNA; weaker than DNA1-C.

`C[n+]1cc2c3c(ccc2c2ccc4cc5c(cc4c21)OCO5)OCO3`: the ΔT in experiment [1] is 1.9 °C; in experiment [2], 3.0 °C; in experiment [4], 2.4 °C; in experiment [5] it was 5.7 °C; in experiment [6], 3.8 °C; in experiment [7] it was 2.4 °C. The ΔT worked out at 5.2 °C in experiment [8], 1.9 °C in experiment [9] and 5.4 °C in [10]. Further, in [3], the binding constant is on record as 1.7±0.15×10^7 M^−1. For the same compound, the binding entry in [11] was “yes”.

The values are drawn from publication PMC3502418 (2012).
